Laboratory results taken from patent publication US10487068B2, “Pyridazine derivatives as RORc modulators” (Genentech, Inc., priority 2015, dated 2019).

Target: T1, RORc ligand binding domain (Homo sapiens, UniProt P51449)
T1 sequence (P51449 269-508 limits assumed): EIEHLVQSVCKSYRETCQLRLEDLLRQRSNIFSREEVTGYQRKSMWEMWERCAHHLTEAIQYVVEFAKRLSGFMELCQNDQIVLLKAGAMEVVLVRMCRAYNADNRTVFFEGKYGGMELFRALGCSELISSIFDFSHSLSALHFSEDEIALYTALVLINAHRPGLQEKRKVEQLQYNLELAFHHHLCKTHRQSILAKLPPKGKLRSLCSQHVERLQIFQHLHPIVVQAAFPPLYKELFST
Test: In Vitro RORc Ligand Binding Assay
Settings: RORc IC50, radioligand 25-[3H]hydroxycholesterol 6 nM; 0.6 ug/mL RORc receptor; 3 h at 25° C.

Row | Structure (SMILES) | IC50 [nM]
1 | CC1(C)[C@H]2CC[C@]1(c1nccc(-n3ccnc3)n1)c1nnc(-c3c(F)cccc3F)cc12 [Example 408, (5R,8R)-8-(4-(1H-imidazol-1-yl)pyrimidin-2-yl)-3-(2,6-difluorophenyl)-9,9-dimethyl-5,6,7,8-tetrahydro-5,8-methanocinnoline] | 11
2 | CC1(C)[C@H]2CC[C@]1(c1cncc(-c3ccnc(OCC(N)=O)c3)n1)c1nnc(-c3c(F)cccc3F)cc12 [Example 410, 2-((4-(6-((5R,8S)-3-(2,6-difluorophenyl)-9,9-dimethyl-5,6,7,8-tetrahydro-5,8-methanocinnolin-8-yl)pyrazin-2-yl)pyridin-2-yl)oxy)acetamide] | 6.3
3 | CC1(C)[C@H]2CC[C@]1(c1cncc(-c3ccn(CC(N)=O)n3)n1)c1nnc(-c3c(F)cccc3F)cc12 [Example 411, 2-(3-(6-((5R,8S)-3-(2,6-difluorophenyl)-9,9-dimethyl-5,6,7,8-tetrahydro-5,8-methanocinnolin-8-yl)pyrazin-2-yl)-1H-pyrazol-1-yl)acetamide] | 8.8
4 | CC1(C)[C@H]2CC[C@]1(c1cncc(-c3ccc(CS(C)(=O)=O)nc3)n1)c1nnc(-c3c(F)cccc3F)cc12 [Example 413] | 5
5 | C[C@H](O)Cn1ccc(-c2cncc([C@@]34CC[C@@H](c5cc(-c6c(F)cccc6F)nnc53)C4(C)C)n2)n1 [Example 417, (S)-1-(3-(6-((5R,8S)-3-(2,6-difluorophenyl)-9,9-dimethyl-5,6,7,8-tetrahydro-5,8-methanocinnolin-8-yl)pyrazin-2-yl)-1H-pyrazol-1-yl)propan-2-ol] | 5.6
6 | C[C@@H](O)C(=O)Nc1ccc(-c2nccc([C@@]34CC[C@@H](c5cc(-c6c(F)cccc6F)nnc53)C4(C)C)n2)cn1 [Example 418] | 10.5
7 | CC1(C)[C@H]2CC[C@]1(c1cncc(-c3ccc(N)nc3)n1)c1nnc(-c3c(F)cccc3F)cc12 [Example 419, 5-(6-((5R,8S)-3-(2,6-difluorophenyl)-9,9-dimethyl-5,6,7,8-tetrahydro-5,8-methanocinnolin-8-yl)pyrazin-2-yl)pyridin-2-amine] | 10.1
8 | CC1(C)[C@H]2CC[C@]1(c1cncc(-c3ccc(OCCO)nc3)n1)c1nnc(-c3c(F)cccc3F)cc12 [Example 420, 2-((5-(6-((5R,8S)-3-(2,6-difluorophenyl)-9,9-dimethyl-5,6,7,8-tetrahydro-5,8-methanocinnolin-8-yl)pyrazin-2-yl)pyridin-2-yl)oxy)ethanol] | 9.2
9 | CC1(C)[C@H]2CC[C@]1(c1cncc(-n3ccncc3=O)n1)c1nnc(-c3c(F)cccc3F)cc12 [Example 421, 6′-((5R,8S)-3-(2,6-difluorophenyl)-9,9-dimethyl-5,6,7,8-tetrahydro-5,8-methanocinnolin-8-yl)-2H-[1,2′-bipyrazin]-2-one] | 39.5

More lines, now with the values ahead:

Row | IC50 [nM] | Structure (SMILES)
10 | 7.6 | CC(C)(O)Cn1ccc(-c2cncc([C@@]34CC[C@@H](c5cc(-c6c(F)cccc6F)nnc53)C4(C)C)n2)n1 [Example 407, 1-(3-(6-((5R,8S)-3-(2,6-difluorophenyl)-9,9-dimethyl-5,6,7,8-tetrahydro-5,8-methanocinnolin-8-yl)pyrazin-2-yl)-1H-pyrazol-1-yl)-2-methylpropan-2-ol]
11 | 7.8 | CC1(C)[C@H]2CC[C@]1(c1ccnc(-c3cnc(=O)[nH]c3)n1)c1nnc(-c3c(F)cccc3F)cc12 [Example 409]
12 | 7.1 | CC1(C)[C@H]2CC[C@]1(c1ccnc(-c3ccnc(CO)c3)n1)c1nnc(-c3c(F)cccc3F)cc12 [Example 412]
13 | 9.8 | CC1(C)[C@H]2CC[C@]1(c1ccnc(-c3ccc(NS(C)(=O)=O)nc3)n1)c1nnc(-c3c(F)cccc3F)cc12 [Example 414, N-(5-(4-((5R,8S)-3-(2,6-difluorophenyl)-9,9-dimthyl-5,6,7,8-tetrahydro-5,8-methanocinnolin-8-yl)pyrimidin-2-yl)pyridin-2-yl)methanesulfonamide]
14 | 22 | CC(C)(O)c1cnc(-c2nccc([C@@]34CC[C@@H](c5cc(-c6c(F)cccc6F)nnc53)C4(C)C)n2)cn1 [Example 415]
